# In patent US9200008B2 (ASKA PHARMACEUTICAL CO., LTD., priority 2010, dated 2015):
# Test system: Human prostate cancer cell lines (PC-3 cells)
# Assay: Measurement of cell death-inducing activity (Test Example 1)
# Type: cell-based
# Details: PC-3, 48 h, 48 hours after addition, tested at 10, 1, 0.1, 0.025 and 0.00625 μmol/L, qualitative evaluation of 10 fields, read-out: Concentration showing the cell death-inducing activity (cell death-inducing rate not less than 40%)
# In short: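 Compound treatment lasted 48 h at 10 to 0.00625 μmol/L (five levels, DMSO as control) on PC-3 cells pre-cultured 48 h at 37 °C, 5% CO2 after seeding at 1×10^5 cells/well. A cell death-inducing rate of 40% or more counted as active.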
row,Structure (SMILES),minimal effective concentration
1,CCn1nc(-c2ccc(C)cc2C)cc1NC(=O)OCc1ccc2nn(C)cc2c1 [Example 9-296],1 µM
2,COc1cc(Cl)ccc1-c1cc(NC(=O)OCc2ccc3cnn(C)c3c2)n(C)n1 [Example 9-297],10 µM
3,CCn1ncc2ccc(COC(=O)Nc3cc(-c4ccc(Cl)cc4OC)nn3C)cc21 [Example 9-298],10 µM
4,COc1cc(Cl)ccc1-c1cc(NC(=O)OCc2ccc3cn(C)nc3c2)n(C)n1 [Example 9-300],0.00625 µM
5,CCn1cc2ccc(COC(=O)Nc3cc(-c4ccc(Cl)cc4OC)nn3C)cc2n1 [Example 9-301],0.025 µM
6,CCn1cc2ccc(COC(=O)Nc3cc(-c4ccc(Cl)cc4OC)nn3CC)cc2n1 [Example 9-302],0.1 µM
7,CCn1nc(-c2ccc(C)cc2C)cc1NC(=O)OCc1ccc2cn(C)nc2c1 [Example 9-303],1 µM
8,CCn1cc2ccc(COC(=O)Nc3cc(-c4ccc(C)cc4C)nn3C)cc2n1 [Example 9-304],1 µM
9,CCn1cc2ccc(COC(=O)Nc3cc(-c4ccc(C)cc4C)nn3CC)cc2n1 [Example 9-305],1 µM
10,Cn1nc(NC(=O)OCc2ccc3c(c2)ncn3C)cc1-c1ccccc1 [Example 9-306],10 µM
11,COc1cc(Cl)ccc1-c1cc(NC(=O)OCc2ccc3c(c2)ncn3C)nn1C [Example 9-309],10 µM
12,COc1cc(Cl)ccc1-c1nn(C)c(NC(=O)OCc2ccc3c(c2)ncn3C)c1C [Example 9-311],10 µM
13,CCn1cnc2cc(COC(=O)Nc3c(C)c(-c4ccc(Cl)cc4OC)nn3C)ccc21 [Example 9-313],10 µM
14,Cn1nc2c(c1NC(=O)OCc1ccc3c(c1)ncn3C)COc1ccccc1-2 [Example 9-320],10 µM
15,CCn1nc2c(c1NC(=O)OCc1ccc3c(c1)ncn3C)COc1ccccc1-2 [Example 9-321],10 µM
16,Cn1nc2c(c1NC(=O)OCc1ccc3c(cnn3C)c1)COc1ccccc1-2 [Example 9-324],10 µM
17,Cn1cnc2cc(COC(=O)Nc3nnc(-c4ccc(Cl)cc4Cl)s3)ccc21 [Example 9-335],10 µM
18,CCn1nc(-c2ccc(Cl)cc2Cl)cc1NC(=O)OC(C)c1ccc2c(c1)ncn2C (centres unmarked) [Example 9-337],10 µM
19,COc1cc(Cl)ccc1-c1cc(NC(=O)OC(C)c2ccc3c(c2)ncn3C)n(C)n1 (centres unmarked) [Example 9-338],10 µM
20,Cc1ccc(-c2cc(NC(=O)OC(C)c3ccc4c(c3)ncn4C)n(C)n2)c(C)c1 (centres unmarked) [Example 9-339],10 µM
21,COc1cc(Cl)ccc1-c1nc(C)c(NC(=O)OCc2ccc3c(c2)nc2n3CC(O)C2)s1 (centres unmarked) [Example 9-340],0.025 µM
22,COc1cc(C)ccc1-c1nc(C)c(NC(=O)OCc2ccc3c(c2)nc2n3CC(O)C2)s1 (centres unmarked) [Example 9-341],0.025 µM
23,COc1cc(C)ccc1-c1nc(C)c(NC(=O)OCc2ccc3c(c2)nc2n3CCC(O)C2)s1 (centres unmarked) [Example 9-342],1 µM
24,COc1cc(Cl)ccc1-c1nc(C)c(NC(=O)OCc2ccc3c(c2)nc2n3CCC(O)C2)s1 (centres unmarked) [Example 9-343],0.1 µM

row,Structure (SMILES),minimal effective concentration
1,CCc1nc(-c2ccc(C)cc2OC)sc1NC(=O)OCc1ccc2c(c1)ncn2C [Example 9-344],0.00625 µM
2,CCc1nc(-c2ccc(Cl)cc2C)sc1NC(=O)OCc1ccc2c(c1)ncn2CC [Example 9-345],0.025 µM
3,CCc1nc(-c2ccc(F)cc2OC)sc1NC(=O)OCc1ccc2c(c1)ncn2CC [Example 9-346],0.025 µM
4,CCc1nc(-c2ccccc2OC)sc1NC(=O)OCc1ccc2c(c1)nc1n2CCC1 [Example 9-347],1 µM
5,CCc1nc(-c2ccc(F)cc2C)sc1NC(=O)OCc1ccc2c(c1)nc1n2CCC1 [Example 9-348],0.1 µM
6,CCc1nc(-c2ccc(Cl)cc2C)sc1NC(=O)OCc1ccc2c(c1)nc1n2CCC1 [Example 9-349],0.025 µM
7,CCc1nc(-c2ccc(C)cc2C)sc1NC(=O)OCc1ccc2c(c1)nc1n2CCC1 [Example 9-350],0.1 µM
8,CCc1nc(-c2ccccc2OC)sc1NC(=O)OCc1ccc2c(c1)nc1n2CCCC1 [Example 9-351],1 µM
9,CCc1nc(-c2ccc(F)cc2OC)sc1NC(=O)OCc1ccc2c(c1)nc1n2CCCC1 [Example 9-352],0.1 µM
10,CCc1nc(-c2ccc(C)cc2OC)sc1NC(=O)OCc1ccc2c(c1)nc1n2CCCC1 [Example 9-353],0.1 µM
11,CCc1nc(-c2ccc(C)cc2C)sc1NC(=O)OCc1ccc2c(c1)nc1n2CCCC1 [Example 9-354],1 µM
12,CCc1nc(-c2ccc(F)cc2C)sc1NC(=O)OCc1ccc2c(c1)nc1n2CCCC1 [Example 9-355],1 µM
13,CCc1nc(-c2ccc(Cl)cc2C)sc1NC(=O)OCc1ccc2c(c1)nc1n2CCCC1 [Example 9-356],0.1 µM
14,CCc1nc(-c2ccc(F)cc2OC)sc1NC(=O)OCc1ccc2c(c1)nc1n2CCOC1 [Example 9-357],0.025 µM
15,CCc1nc(-c2ccc(C)cc2OC)sc1NC(=O)OCc1ccc2c(c1)nc1n2CCOC1 [Example 9-358],0.025 µM
16,CCc1nc(-c2ccc(Cl)cc2C)sc1NC(=O)OCc1ccc2c(c1)ncn2C [Example 9-359],0.025 µM
17,CCc1nc(-c2ccc(F)cc2OC)sc1NC(=O)OCc1ccc2c(cnn2CC)c1 [Example 9-360],0.025 µM
18,CCc1nc(-c2ccc(F)cc2C)sc1NC(=O)OCc1ccc2c(cnn2CC)c1 [Example 9-361],0.1 µM
19,CCc1nc(-c2ccc(Cl)cc2C)sc1NC(=O)OCc1ccc2c(cnn2CC)c1 [Example 9-362],0.025 µM
20,CCc1nc(-c2ccc(F)cc2C)sc1NC(=O)OCc1ccc2nn(C)cc2c1 [Example 9-363],1 µM
21,CCc1nc(-c2ccc(Cl)cc2OC)sc1NC(=O)OCc1ccc2nn(C)cc2c1 [Example 9-364],0.025 µM
22,CCc1nc(-c2ccc(C)cc2OC)sc1NC(=O)OCc1ccc2nn(C)cc2c1 [Example 9-365],0.025 µM
23,CCc1nc(-c2ccc(C)cc2C)sc1NC(=O)OCc1ccc2nn(C)cc2c1 [Example 9-366],0.1 µM
24,CCc1nc(-c2ccccc2OC)sc1NC(=O)OCc1ccc2nn(CC)cc2c1 [Example 9-367],1 µM

row,Structure (SMILES),minimal effective concentration
1,CCc1nc(-c2ccc(C)cc2OC)sc1NC(=O)OCc1ccc2nn(CC)cc2c1 [Example 9-368],0.1 µM
2,CCc1nc(-c2ccc(F)cc2C)sc1NC(=O)OCc1ccc2nn(CC)cc2c1 [Example 9-369],1 µM
3,CCc1nc(-c2ccc(Cl)cc2C)sc1NC(=O)OCc1ccc2nn(CC)cc2c1 [Example 9-370],0.1 µM
4,CCc1nc(-c2ccc(C)cc2C)sc1NC(=O)OCc1ccc2nn(CC)cc2c1 [Example 9-371],1 µM
5,CCc1nc(-c2ccc(C)cc2OC)sc1NC(=O)OCc1ccc2c(c1)nnn2C [Example 9-372],0.00625 µM
6,CCc1nc(-c2ccc(Cl)cc2OC)sc1NC(=O)OCc1ccc2c(c1)nc(C)n2C [Example 9-373],0.025 µM
7,CCc1nc(-c2ccc(C)cc2OC)sc1NC(=O)OCc1ccc2c(c1)nc(C)n2C [Example 9-374],0.1 µM
8,CCc1nc(-c2ccc(C)cc2C)sc1NC(=O)OCc1ccc2c(c1)nc(C)n2C [Example 9-375],0.1 µM
9,CCc1nc(-c2ccc(Cl)cc2C)sc1NC(=O)OCc1ccc2c(c1)nc(C)n2C [Example 9-376],0.1 µM
10,CCc1nc(-c2ccc(Cl)cc2C)sc1NC(=O)OCc1ccc2c(c1)nc1n2CCOC1 [Example 9-377],0.025 µM
11,"COc1cc(Cl)ccc1-c1cc(NC(=O)OCc2ccc3c(c2)ncn3C)n(C)c1 [Example 10-2, [4-(4-Chloro-2-methoxyphenyl)-1-methyl-1H-pyrrol-2-yl]carbamic acid 1-methyl-1H-benzimidazol-5-ylmethyl ester]",1 µM
12,"Cc1ccccc1-c1nc(C)c(COC(=O)Nc2ccc3c(c2)ncn3C)s1 [Example 13-1, (1-Methyl-1H-benzimidazol-5-yl)carbamic acid 4-methyl-2-(2-methylphenyl)thiazol-5-ylmethyl ester]",0.1 µM
13,Cc1cc(Cl)ccc1-c1nc(C)c(COC(=O)Nc2ccc3c(c2)nnn3C)s1 [Example 13-3],0.1 µM
14,COc1cc(Cl)ccc1-c1nc(C)c(COC(=O)Nc2ccc3c(c2)ncn3C)s1 [Example 13-5],0.1 µM
15,Cc1ccc(-c2nc(C)c(COC(=O)Nc3ccc4c(c3)ncn4C)s2)c(C)c1 [Example 13-8],0.025 µM
16,Cc1cc(F)ccc1-c1nc(C)c(COC(=O)Nc2ccc3c(c2)ncn3C)s1 [Example 13-9],0.025 µM
17,Cc1cc(Cl)ccc1-c1nc(C)c(COC(=O)Nc2ccc3c(c2)ncn3C)s1 [Example 13-10],0.00625 µM
18,Cc1nc(-c2ccc(F)cc2Cl)sc1COC(=O)Nc1ccc2c(c1)ncn2C [Example 13-11],0.025 µM
19,CCn1cnc2cc(NC(=O)OCc3sc(-c4ccccc4C)nc3C)ccc21 [Example 13-12],0.1 µM
20,CCn1cnc2cc(NC(=O)OCc3sc(-c4ccc(Cl)cc4OC)nc3C)ccc21 [Example 13-13],0.1 µM
21,CCn1cnc2cc(NC(=O)OCc3sc(-c4ccc(C)cc4C)nc3C)ccc21 [Example 13-15],0.025 µM
22,CCn1cnc2cc(NC(=O)OCc3sc(-c4ccc(F)cc4C)nc3C)ccc21 [Example 13-16],0.025 µM
23,CCn1cnc2cc(NC(=O)OCc3sc(-c4ccc(Cl)cc4C)nc3C)ccc21 [Example 13-17],0.025 µM
